Columns and labels:
[1] = molecular target: Vascular endothelial growth factor receptor 2 (Homo sapiens, UniProt P35968); assay: Inhibition of KDR after 1 hr
[2] = molecular target: Tyrosine-protein kinase JAK2 (Homo sapiens, UniProt O60674); assay: Inhibition of JAK2 after 1 hr using biotinylated PDKtide as substrate
[3] = molecular target: Rho-associated protein kinase 2 (Homo sapiens, UniProt O75116); assay: Inhibition of Rock2 after 1 hr using biotinylated longS peptide as substrate
[4] = molecular target: Epidermal growth factor receptor (Homo sapiens, UniProt P00533)
Description: Inhibition of EGFR after 1 hr

[5] = molecular target: Serine/threonine-protein kinase pim-1 (Homo sapiens, UniProt P11309); assay: Inhibition of Pim1 after 1 hr using biotinylated AL1peptide as substrate
[6] = molecular target: Glycogen synthase kinase-3 beta (Homo sapiens, UniProt P49841)
Chain of Glycogen synthase kinase-3 beta (P49841 whole entry): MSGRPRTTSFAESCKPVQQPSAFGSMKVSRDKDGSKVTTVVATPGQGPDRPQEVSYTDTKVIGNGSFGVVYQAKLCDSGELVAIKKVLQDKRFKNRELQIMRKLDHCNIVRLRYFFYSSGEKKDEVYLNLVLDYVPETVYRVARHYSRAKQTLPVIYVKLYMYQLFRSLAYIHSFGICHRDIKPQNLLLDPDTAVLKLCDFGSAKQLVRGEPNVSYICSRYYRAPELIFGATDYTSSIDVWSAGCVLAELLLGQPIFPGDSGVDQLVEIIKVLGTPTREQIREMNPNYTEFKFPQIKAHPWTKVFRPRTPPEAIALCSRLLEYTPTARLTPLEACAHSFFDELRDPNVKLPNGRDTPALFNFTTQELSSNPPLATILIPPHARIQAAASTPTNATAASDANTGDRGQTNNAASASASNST
Description: Inhibition of GSK3-beta after 1 hr

[7] = molecular target: Serine/threonine-protein kinase PAK 4 (Homo sapiens, UniProt O96013); assay: Inhibition of Pak4 after 1 hr using biotinylated L15 peptide as substrate
Chain of Serine/threonine-protein kinase PAK 4 (O96013 whole entry): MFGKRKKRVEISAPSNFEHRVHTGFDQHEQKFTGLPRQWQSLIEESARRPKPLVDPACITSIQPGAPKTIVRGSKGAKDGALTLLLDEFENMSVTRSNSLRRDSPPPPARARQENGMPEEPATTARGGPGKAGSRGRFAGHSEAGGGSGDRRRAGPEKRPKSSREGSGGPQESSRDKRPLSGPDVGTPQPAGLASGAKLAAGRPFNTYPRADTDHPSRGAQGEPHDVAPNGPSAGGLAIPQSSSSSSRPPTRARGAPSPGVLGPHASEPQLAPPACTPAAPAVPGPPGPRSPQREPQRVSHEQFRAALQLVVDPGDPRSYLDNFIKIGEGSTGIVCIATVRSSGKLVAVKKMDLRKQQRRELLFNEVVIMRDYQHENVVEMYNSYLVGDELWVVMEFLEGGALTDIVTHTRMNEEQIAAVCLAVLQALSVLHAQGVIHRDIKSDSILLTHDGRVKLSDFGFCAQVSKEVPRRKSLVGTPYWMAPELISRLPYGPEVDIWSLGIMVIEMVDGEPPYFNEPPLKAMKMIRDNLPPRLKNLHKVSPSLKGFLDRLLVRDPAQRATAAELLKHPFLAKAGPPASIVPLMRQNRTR

Chain of Vascular endothelial growth factor receptor 2 (P35968 whole entry): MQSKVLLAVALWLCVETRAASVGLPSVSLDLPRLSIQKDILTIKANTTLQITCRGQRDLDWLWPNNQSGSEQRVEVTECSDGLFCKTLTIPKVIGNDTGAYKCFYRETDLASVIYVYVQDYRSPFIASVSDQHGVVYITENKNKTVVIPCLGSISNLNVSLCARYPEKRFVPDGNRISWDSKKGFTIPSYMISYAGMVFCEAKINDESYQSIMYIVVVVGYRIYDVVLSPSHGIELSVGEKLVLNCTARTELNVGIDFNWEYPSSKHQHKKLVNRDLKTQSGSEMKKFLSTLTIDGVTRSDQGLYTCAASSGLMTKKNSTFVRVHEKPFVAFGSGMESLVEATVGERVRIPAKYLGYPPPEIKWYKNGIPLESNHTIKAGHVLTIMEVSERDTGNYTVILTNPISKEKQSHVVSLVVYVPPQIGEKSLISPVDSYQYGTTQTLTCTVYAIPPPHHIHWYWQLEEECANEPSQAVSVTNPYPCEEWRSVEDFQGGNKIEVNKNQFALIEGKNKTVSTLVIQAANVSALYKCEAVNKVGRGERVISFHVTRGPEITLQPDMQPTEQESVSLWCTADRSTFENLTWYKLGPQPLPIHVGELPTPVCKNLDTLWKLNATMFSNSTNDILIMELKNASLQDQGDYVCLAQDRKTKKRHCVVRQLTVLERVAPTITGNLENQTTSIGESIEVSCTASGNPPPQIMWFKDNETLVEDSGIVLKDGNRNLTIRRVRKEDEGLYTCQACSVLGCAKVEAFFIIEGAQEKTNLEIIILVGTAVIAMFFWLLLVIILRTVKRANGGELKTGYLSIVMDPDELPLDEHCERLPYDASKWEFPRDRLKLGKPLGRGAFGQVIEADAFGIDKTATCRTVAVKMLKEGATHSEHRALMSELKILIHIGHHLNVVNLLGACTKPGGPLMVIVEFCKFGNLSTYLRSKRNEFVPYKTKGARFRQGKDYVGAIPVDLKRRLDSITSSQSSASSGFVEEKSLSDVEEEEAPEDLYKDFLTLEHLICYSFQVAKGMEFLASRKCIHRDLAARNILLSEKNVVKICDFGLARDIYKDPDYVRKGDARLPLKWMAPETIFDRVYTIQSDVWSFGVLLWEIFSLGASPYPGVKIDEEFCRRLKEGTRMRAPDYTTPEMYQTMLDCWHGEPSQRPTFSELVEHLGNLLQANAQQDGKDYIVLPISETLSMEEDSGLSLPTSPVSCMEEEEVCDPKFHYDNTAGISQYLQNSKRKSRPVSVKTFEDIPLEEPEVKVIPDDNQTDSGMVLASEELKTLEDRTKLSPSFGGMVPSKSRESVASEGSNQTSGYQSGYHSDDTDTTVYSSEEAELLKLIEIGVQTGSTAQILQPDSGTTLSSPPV
Chain of Rho-associated protein kinase 2 (O75116 whole entry): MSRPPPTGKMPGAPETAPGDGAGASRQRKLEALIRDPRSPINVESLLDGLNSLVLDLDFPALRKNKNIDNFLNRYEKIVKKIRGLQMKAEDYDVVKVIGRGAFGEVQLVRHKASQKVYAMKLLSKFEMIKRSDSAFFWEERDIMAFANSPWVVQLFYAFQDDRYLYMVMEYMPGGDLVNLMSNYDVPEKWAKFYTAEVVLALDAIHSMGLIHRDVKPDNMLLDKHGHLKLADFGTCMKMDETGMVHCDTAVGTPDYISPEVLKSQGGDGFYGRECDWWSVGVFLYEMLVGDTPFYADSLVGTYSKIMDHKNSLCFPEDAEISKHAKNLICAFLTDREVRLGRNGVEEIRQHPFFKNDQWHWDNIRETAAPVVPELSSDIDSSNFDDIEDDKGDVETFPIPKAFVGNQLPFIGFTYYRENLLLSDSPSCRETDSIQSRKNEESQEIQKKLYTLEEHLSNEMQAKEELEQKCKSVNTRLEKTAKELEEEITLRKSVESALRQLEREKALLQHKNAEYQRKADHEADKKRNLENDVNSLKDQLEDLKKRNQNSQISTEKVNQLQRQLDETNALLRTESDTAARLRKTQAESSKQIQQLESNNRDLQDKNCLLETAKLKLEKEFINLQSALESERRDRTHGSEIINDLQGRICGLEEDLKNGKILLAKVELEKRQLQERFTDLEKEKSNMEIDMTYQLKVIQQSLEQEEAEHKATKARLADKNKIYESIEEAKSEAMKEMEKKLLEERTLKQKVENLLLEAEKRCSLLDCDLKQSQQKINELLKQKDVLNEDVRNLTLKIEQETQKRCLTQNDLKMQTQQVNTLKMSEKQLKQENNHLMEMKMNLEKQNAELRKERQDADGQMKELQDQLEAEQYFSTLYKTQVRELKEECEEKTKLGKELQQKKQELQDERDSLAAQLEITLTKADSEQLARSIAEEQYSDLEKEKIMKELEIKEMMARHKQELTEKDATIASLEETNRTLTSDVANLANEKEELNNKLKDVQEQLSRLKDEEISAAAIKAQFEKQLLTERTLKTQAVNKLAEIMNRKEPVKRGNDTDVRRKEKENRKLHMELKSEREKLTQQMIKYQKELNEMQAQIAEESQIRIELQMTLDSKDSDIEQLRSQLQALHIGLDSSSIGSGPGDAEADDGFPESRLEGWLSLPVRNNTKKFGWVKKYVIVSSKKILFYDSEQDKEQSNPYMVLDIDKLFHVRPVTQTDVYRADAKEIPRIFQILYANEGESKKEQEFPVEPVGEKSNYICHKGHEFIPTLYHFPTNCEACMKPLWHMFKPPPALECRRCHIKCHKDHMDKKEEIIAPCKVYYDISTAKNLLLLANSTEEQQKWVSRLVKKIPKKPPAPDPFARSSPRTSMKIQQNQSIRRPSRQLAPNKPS
Chain of Tyrosine-protein kinase JAK2 (O60674 whole entry): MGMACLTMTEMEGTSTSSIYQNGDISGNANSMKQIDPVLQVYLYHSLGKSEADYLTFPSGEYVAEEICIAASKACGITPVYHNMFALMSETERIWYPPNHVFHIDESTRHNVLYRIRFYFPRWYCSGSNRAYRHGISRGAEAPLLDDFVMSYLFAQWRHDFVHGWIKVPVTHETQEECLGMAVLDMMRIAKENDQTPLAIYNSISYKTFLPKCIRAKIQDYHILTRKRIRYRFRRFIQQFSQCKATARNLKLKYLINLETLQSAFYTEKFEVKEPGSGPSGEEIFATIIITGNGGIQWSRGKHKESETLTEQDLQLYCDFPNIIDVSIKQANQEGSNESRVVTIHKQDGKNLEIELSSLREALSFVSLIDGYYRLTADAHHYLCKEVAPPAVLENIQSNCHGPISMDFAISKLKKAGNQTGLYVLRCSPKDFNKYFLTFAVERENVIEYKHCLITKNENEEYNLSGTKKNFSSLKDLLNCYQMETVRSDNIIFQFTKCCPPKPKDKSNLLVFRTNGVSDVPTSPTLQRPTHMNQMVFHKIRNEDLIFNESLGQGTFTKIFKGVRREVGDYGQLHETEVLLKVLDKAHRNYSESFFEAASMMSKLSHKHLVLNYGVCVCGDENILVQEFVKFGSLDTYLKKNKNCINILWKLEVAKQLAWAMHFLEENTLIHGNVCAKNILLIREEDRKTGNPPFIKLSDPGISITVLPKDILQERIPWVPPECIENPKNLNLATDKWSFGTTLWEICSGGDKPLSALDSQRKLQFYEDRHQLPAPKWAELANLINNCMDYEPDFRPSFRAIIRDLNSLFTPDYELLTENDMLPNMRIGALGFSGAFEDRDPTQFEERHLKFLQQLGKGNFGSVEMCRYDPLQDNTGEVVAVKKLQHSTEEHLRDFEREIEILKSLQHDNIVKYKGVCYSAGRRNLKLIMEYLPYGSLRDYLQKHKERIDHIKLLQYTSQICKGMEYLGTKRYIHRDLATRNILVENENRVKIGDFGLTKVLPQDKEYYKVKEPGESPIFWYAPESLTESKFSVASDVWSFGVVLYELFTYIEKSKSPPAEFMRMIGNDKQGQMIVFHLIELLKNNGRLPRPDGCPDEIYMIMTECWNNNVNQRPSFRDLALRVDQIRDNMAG

Ki [1] [µM]	Ki [2] [µM]	Ki [3] [µM]	Ki [4] [µM]	Ki [5] [µM]	Ki [6] [µM]	Ki [7] [µM]	SMILES
> 8.88	0.898	0.019	> 1.8	> 8.57	0.446	> 3.75	c1ccc(CCc2cn(-c3ccc4[nH]ncc4c3)nn2)cc1
> 8.88	0.756	0.108	> 1.8	8.36	2.03	> 3.75	CCCc1cn(-c2ccc3[nH]ncc3c2)nn1
127	–	0.018	–	36	0.016	–	Clc1ccc(Cl)c(Cn2cc(-c3ccc4[nH]ncc4c3)nn2)c1
> 8.88	1.45	0.23	> 1.8	> 8.57	5.22	> 3.75	OCCCc1cn(-c2ccc3[nH]ncc3c2)nn1
> 8.88	0.281	0.1	> 1.8	> 8.57	0.891	> 3.75	c1cc2[nH]ncc2cc1-n1cc(CC2CCCCC2)nn1
2.71	–	0.068	–	37.8	0.197	–	Clc1ccc(Cn2cc(-c3ccc4[nH]ncc4c3)nn2)cc1
> 0.915	–	0.375	–	–	0.07	–	Cc1cccc(Cn2cc(-c3ccc4[nH]ncc4c3)nn2)c1
> 8.88	–	0.402	–	3.68	4.27	> 3.75	CNC(=O)c1cc(-c2ccc3[nH]ncc3c2)on1
> 8.88	> 1.45	0.635	> 1.8	> 8.57	> 5.45	> 3.75	COCc1cn(-c2ccc3[nH]ncc3c2)nn1
> 0.915	–	0.285	–	10.2	0.091	13.1	Fc1ccccc1Cn1cc(-c2ccc3[nH]ncc3c2)nn1
3.29	0.016	0.016	–	5.16	0.45	3.59	Nc1n[nH]c2ccc(-c3cc(Cc4ccccc4)no3)cc12
> 0.915	–	0.041	–	41.5	0.028	–	Clc1cc(Cl)cc(Cn2cc(-c3ccc4[nH]ncc4c3)nn2)c1
–	> 1.45	–	–	–	3.81	–	c1cc2[nH]ncc2cc1-c1cc(CN2CCCCC2)no1
> 8.88	0.644	0.062	> 1.8	> 8.57	0.528	> 3.75	c1ccc(CCCc2cn(-c3ccc4[nH]ncc4c3)nn2)cc1
3.55	1.45	0.209	–	2.22	0.448	69.9	c1cc2n[nH]cc2cc1-c1c[nH]nn1
13.1	1.45	0.039	–	–	0.023	–	Clc1cccc(Cn2cc(-c3ccc4[nH]ncc4c3)nn2)c1
–	–	0.18	–	12	0.026	–	Fc1cccc(Cn2cc(-c3ccc4[nH]ncc4c3)nn2)c1
–	–	–	–	–	2.53	–	CCCc1cc(-c2ccc3[nH]ncc3c2)on1
–	–	–	–	–	0.542	–	c1ccc(Cc2cn(-c3ccc4[nH]ncc4c3)nn2)cc1
> 8.88	0.791	0.044	> 1.8	> 8.57	1.3	> 3.75	c1cc2[nH]ncc2cc1-n1cc(C2CCCC2)nn1
> 8.88	1.45	0.356	> 1.8	> 8.57	3.47	> 3.75	c1cc2[nH]ncc2cc1-n1cc(C2CC2)nn1
–	–	0.285	–	165	0.07	–	Fc1ccc(Cn2cc(-c3ccc4[nH]ncc4c3)nn2)cc1
–	–	0.015	–	20.3	0.048	67.6	Clc1cccc(Cn2cc(-c3ccc4[nH]ncc4c3)nn2)c1Cl
–	> 1.45	0.097	–	4.15	0.045	–	Clc1ccccc1Cn1cc(-c2ccc3[nH]ncc3c2)nn1

Reference: ChEMBL document CHEMBL1681644, “Scaffold oriented synthesis. Part 3: design, synthesis and biological evaluation of novel 5-substituted indazoles as potent and selective kinase inhibitors employing [2+3] cycloadditions” (Bioorg Med Chem Lett, 2011)
